Patent US10829520B2, “Beta-hairpin peptidomimetics” (POLYPHOR AG, priority 2015, dated 2020)
Where a SMILES comes first, the peptide text is derived from it. Bridges are numbered along the chain shown (N, C = ends). [ ]: non-standard residue; d: D form. Tle = CC(C)(C)[C@H](N)C(=O)O; Nle = CCCC[C@H](N)C(=O)O; Dab = NCC[C@H](N)C(=O)O; Dap = NC[C@H](N)C(=O)O; Aib = CC(C)(N)C(=O)O

What was measured:
Type in all cases: cell-based
[1] = tested on: Acinetobacter baumannii 872842; conditions: 872842
[2] = tested on: Acinetobacter baumannii DSM 30008; conditions: DSM 30008
Outline: (§1)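 Using the CLSI reference method, each strain at approx. 10^6 CFU/mL was exposed to serially diluted peptide in MH-II broth with 0.002% P-80. After 18-20 h at 35° C, the lowest concentration showing no visible growth gave the MIC.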

Escherichia coli 926415 = conditions: 926415
[3] = tested on: Escherichia coli ATCC 25922; conditions: ATCC 25922
Outline: as §1

[4] = tested on: Klebsiella pneumoniae 968733; conditions: 968733
[5] = tested on: Klebsiella pneumoniae SSI #3010; conditions: SSI #3010
Outline: as §1

[6] = tested on: Pseudomonas aeruginosa ATCC 27853; conditions: ATCC 27853
Outline: as §1

[7] = tested on: human red blood cells (hRBC); experiment: Hemolysis of human red blood cells; conditions: red cells of human, 1 h, 100 μg/mL
Outline: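 Washed fresh human erythrocytes (20% v/v, ~0.9×10^9 cells/mL final) were incubated with peptides at 100 μg/mL for 1 h at 37 °C with shaking. Supernatant OD540 measured; hemolysis expressed as % of 2.5% Triton X-100 lysis, with PBS/0.001% acetic acid as 0%.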

| SMILES | Acinetobacter baumannii 872842 MIC [1] [µg/mL] | Acinetobacter baumannii DSM 30008 MIC [2] [µg/mL] | Escherichia coli 926415 MIC (Escherichia coli 926415) [µg/mL] | Escherichia coli ATCC 25922 MIC [3] [µg/mL] | Klebsiella pneumoniae 968733 MIC [4] [µg/mL] | Klebsiella pneumoniae SSI #3010 MIC [5] [µg/mL] | Pseudomonas aeruginosa ATCC 27853 MIC [6] [µg/mL] | Hemolysis at 100 μg/mL [7] [%] |
| --- | --- | --- | --- | --- | --- | --- | --- | --- |
| CCCC[C@@H]1NC(=O)[C@@H]2CCCN2C(=O)[C@H]2CCCN2C(=O)[C@H](CO)NC(=O)[C@H](C)NC(=O)[C@H](C(C)(C)C)NC(=O)[C@@H](NC(=O)[C@H](Cc2c[nH]c3ccccc23)NC(C)=O)CSSC[C@@H](C(=O)N[C@@H](CCN)C(=O)N[C@H](C(=O)N[C@@H](CCN)C(=O)N[C@H]2CCNC(=O)[C@H]([C@@H](C)O)NC(=O)[C@H](CNC(=O)[C@@H](N)CCC(=O)O)NC(=O)[C@H](CCN)NC(=O)[C@H](CC(C)C)NC(=O)[C@@H](Cc3ccccc3)NC(=O)[C@H](CCN)NC2=O)[C@@H](C)O)NC(=O)[C@H](Cc2ccc(O)cc2)NC(=O)[C@H](CO)NC1=O [Ex. 25] (Ac-WC[Tle]AS[dP]P[Nle]SYC[Dab]T[Dab][Dab][Dab][dF]L[Dab][Dap](Glu)T; disulfide 2-11; lactam 15-C) | 1 | 1 | 3 | 2 | 8 | 4 | 4 | 3 |
| CCCC[C@@H]1NC(=O)[C@@H]2CCCN2C(=O)[C@H]2CCCN2C(=O)[C@H](CO)NC(=O)[C@H](C)NC(=O)[C@H](C(C)(C)C)NC(=O)[C@@H](NC(=O)[C@H](Cc2c[nH]c3ccccc23)NC(C)=O)CSSC[C@@H](C(=O)NCC(=O)N[C@@H](CCN)C(=O)N[C@H](C(=O)N[C@@H](CCN)C(=O)N[C@H]2CCNC(=O)[C@H]([C@@H](C)O)NC(=O)[C@H](CCN)NC(=O)[C@H](CCN)NC(=O)[C@H](CC(C)C)NC(=O)[C@@H](Cc3ccccc3)NC(=O)[C@H](CCN)NC2=O)[C@@H](C)O)NC(=O)[C@H](Cc2ccc(O)cc2)NC(=O)[C@H](CO)NC1=O [Ex. 26] (Ac-WC[Tle]AS[dP]P[Nle]SYCG[Dab]T[Dab][Dab][Dab][dF]L[Dab][Dab]T; disulfide 2-11; lactam 16-C) | 0.125 | 0.5 | 0.25 | 0.0625 | 0.5 | 0.25 | 0.25 | <1 |
| CCCC[C@@H]1NC(=O)[C@@H]2CCCN2C(=O)[C@H]2CCCN2C(=O)[C@H](CO)NC(=O)[C@H](C)NC(=O)[C@H](C(C)(C)C)NC(=O)[C@@H](NC(=O)[C@H](Cc2c[nH]c3ccccc23)NC(C)=O)CSSC[C@@H](C(=O)N[C@@H](CCN)C(=O)N[C@@H](CCN)C(=O)N[C@H](C(=O)N[C@@H](CCN)C(=O)N[C@H]2CCNC(=O)[C@H]([C@@H](C)O)NC(=O)[C@H](CCN)NC(=O)[C@H](CCN)NC(=O)[C@H](CC(C)C)NC(=O)[C@@H](Cc3ccccc3)NC(=O)[C@H](CCN)NC2=O)[C@@H](C)O)NC(=O)[C@H](Cc2ccc(O)cc2)NC(=O)[C@H](CO)NC1=O [Ex. 27] (Ac-WC[Tle]AS[dP]P[Nle]SYC[Dab][Dab]T[Dab][Dab][Dab][dF]L[Dab][Dab]T; disulfide 2-11; lactam 16-C) | 0.125 | 0.125 | 0.5 | 0.0625 | 0.5 | 0.125 | 0.25 | <1 |
| CCCC[C@@H]1NC(=O)[C@@H]2CCCN2C(=O)[C@H]2CCCN2C(=O)[C@H](CO)NC(=O)[C@H](C)NC(=O)[C@H](C(C)(C)C)NC(=O)[C@@H](NC(=O)[C@H](Cc2c[nH]c3ccccc23)NC(C)=O)CSSC[C@@H](C(=O)N[C@@H](C)C(=O)N[C@@H](CCN)C(=O)N[C@H](C(=O)N[C@@H](CCN)C(=O)N[C@H]2CCNC(=O)[C@H]([C@@H](C)O)NC(=O)[C@H](CCN)NC(=O)[C@H](CCN)NC(=O)[C@H](CC(C)C)NC(=O)[C@@H](Cc3ccccc3)NC(=O)[C@H](CCN)NC2=O)[C@@H](C)O)NC(=O)[C@H](Cc2ccc(O)cc2)NC(=O)[C@H](CO)NC1=O [Ex. 28] (Ac-WC[Tle]AS[dP]P[Nle]SYCA[Dab]T[Dab][Dab][Dab][dF]L[Dab][Dab]T; disulfide 2-11; lactam 16-C) | 1 | 0.5 | 1.5 | 0.25 | 0.375 | 0.25 | 0.5 | 1 |
| CCCC[C@@H]1NC(=O)[C@@H]2CCCN2C(=O)[C@H]2CCCN2C(=O)[C@H](CO)NC(=O)[C@H](C)NC(=O)[C@H](C(C)(C)C)NC(=O)[C@@H](NC(=O)[C@H](Cc2c[nH]c3ccccc23)NC(C)=O)CSSC[C@@H](C(=O)N[C@H](C)C(=O)N[C@@H](CCN)C(=O)N[C@H](C(=O)N[C@@H](CCN)C(=O)N[C@H]2CCNC(=O)[C@H]([C@@H](C)O)NC(=O)[C@H](CCN)NC(=O)[C@H](CCN)NC(=O)[C@H](CC(C)C)NC(=O)[C@@H](Cc3ccccc3)NC(=O)[C@H](CCN)NC2=O)[C@@H](C)O)NC(=O)[C@H](Cc2ccc(O)cc2)NC(=O)[C@H](CO)NC1=O [Ex. 29] (Ac-WC[Tle]AS[dP]P[Nle]SYC[dA][Dab]T[Dab][Dab][Dab][dF]L[Dab][Dab]T; disulfide 2-11; lactam 16-C) | 0.25 | 0.25 | 1 | 0.125 | 1 | 0.25 | 0.5 | <1 |
| CCCC[C@@H]1NC(=O)[C@@H]2CCCN2C(=O)[C@H]2CCCN2C(=O)[C@H](CO)NC(=O)[C@H](C)NC(=O)[C@H](C(C)(C)C)NC(=O)[C@@H](NC(=O)[C@H](Cc2c[nH]c3ccccc23)NC(C)=O)CSSC[C@@H](C(=O)NC(C)(C)C(=O)N[C@@H](CCN)C(=O)N[C@H](C(=O)N[C@@H](CCN)C(=O)N[C@H]2CCNC(=O)[C@H]([C@@H](C)O)NC(=O)[C@H](CCN)NC(=O)[C@H](CCN)NC(=O)[C@H](CC(C)C)NC(=O)[C@@H](Cc3ccccc3)NC(=O)[C@H](CCN)NC2=O)[C@@H](C)O)NC(=O)[C@H](Cc2ccc(O)cc2)NC(=O)[C@H](CO)NC1=O [Ex. 30] (Ac-WC[Tle]AS[dP]P[Nle]SYC[Aib][Dab]T[Dab][Dab][Dab][dF]L[Dab][Dab]T; disulfide 2-11; lactam 16-C) | 1 | 0.25 | 1 | 0.25 | 0.25 | 0.25 | 0.5 | <1 |
